Patent publication EP1104674A1, “O,o'-dihydroxy azo dyes as medicinal components with TPO-agonistic or -synergetic activity” (Curacyte AG, priority 1999, dated 2001)

Target: T1, humanen mpl-Rezeptor (Homo sapiens, UniProt P40238)
T1 sequence (P40238 26-635): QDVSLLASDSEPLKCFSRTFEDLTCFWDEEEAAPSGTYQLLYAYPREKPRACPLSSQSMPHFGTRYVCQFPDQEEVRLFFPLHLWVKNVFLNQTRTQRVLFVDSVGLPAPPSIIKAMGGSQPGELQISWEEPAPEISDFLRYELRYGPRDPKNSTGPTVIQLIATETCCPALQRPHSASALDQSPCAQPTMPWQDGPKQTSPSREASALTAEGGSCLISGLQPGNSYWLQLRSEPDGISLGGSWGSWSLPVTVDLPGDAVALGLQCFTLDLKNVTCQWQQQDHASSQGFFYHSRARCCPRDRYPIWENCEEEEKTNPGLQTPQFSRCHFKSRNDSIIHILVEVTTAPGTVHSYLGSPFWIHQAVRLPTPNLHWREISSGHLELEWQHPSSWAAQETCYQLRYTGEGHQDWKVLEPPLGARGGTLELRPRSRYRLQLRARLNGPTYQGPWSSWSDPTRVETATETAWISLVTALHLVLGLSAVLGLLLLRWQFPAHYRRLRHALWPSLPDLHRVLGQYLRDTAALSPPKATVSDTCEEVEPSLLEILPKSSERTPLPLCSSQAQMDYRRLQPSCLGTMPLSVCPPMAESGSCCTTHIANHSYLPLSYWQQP
Experiment: TPO-dependent cell proliferation test with BaF3 cells transfected with the human mpl receptor (BaF3/mpl), WST readout
Assay type: cell-based
Conditions: BaF3-mpl Rezeptor Proliferationstest; 48 bis 72 h; half-maximal stimulation after background subtraction
From the text: Die Bioaktivität der erfindungsgemäßen Verbindungen kann mittels eines TPO-abhängigen Zellproliferationstests gemessen werden. Die Substanzen dürfen keine Wirkung auf die nicht transfektierten parenteralen BaF3 Zellen ausüben. Murine IL-3-abhängig wachsende BaF3 Zellen wurden mit dem humanen mpl-Rezeptor transfektiert. In Abwesenheit von IL-3 ist die Proliferation und das Überleben dieser Zellen abhängig von TPO. Die parentale, untransfektierte Zell-Linie reagiert nicht auf humanes TPO, proliferiert aber in Gegenwart von IL-3. Die Bestimmung der Zellproliferation erfolgt nach literaturbekannten Verfahren (WO 96/40750). Die chemischen Substanz-Bibliotheken wurden in Bioassays mit den beiden obigen Zell-Linien gescreent. Die Zellen wurden in Gegenwart von IL-3 (BaF3 parental) bzw. TPO (BaF3-mpl-Rezeptor tragend = BaF3/mpl) in RPMI 1640 Medium in Gegenwart von 10 % FCS (fetales Kälberserum) gezüchtet. Für den Test wurden die Zellen zweimal in IL-3 bzw. TPO freiem Medium gewaschen und im Medium, das kein TPO bzw. IL-3 enthielt, resuspendiert. Diese Zellsuspension wurde dann zur Vertiefung einer 96 Tüpfelplatte (Costar), die TPO oder IL-3 und/oder Verbindung enthielt, in einer Menge von 10^4 Zellen/Vertiefung zugegeben. Die Zellen wurden dann für 48 bis 72 h bei 37°C in einem CO2 Inkubator inkubiert. Die proliferative Aktivität wurde bestimmt durch die Zugabe von WST (WST: Zell-Proliferations-Reagens; BM-Katalog-Nr. 1644807 "Tetrazolium-Salz").WST wird von proliferierenden Zellen zu Formazan umgewandelt und diese Umwandlung, als Maß für die Proliferation wird mittels OD (OD: optical density) bei 570 nm in einem ELISA Platten Meßgerät bestimmt.
Zur Ermittlung der halbmaximalen Stimulation wurde vom maximal erzielten Signal der Background (Zellen ohne Substanz) abgezogen und dieser Wert durch 2 geteilt. Dieser Wert plus dem Background-Wert wurden dann zur Bestimmung der EC50 (halbmaximale excitatorv concentration; Substratkonzentration, bei der die Substanz ihre halbmaximale Wirksamkeit im BaF3-mpl Rezeptor Proliferationstest ausübt) herangezogen. In Tabelle 3 sind die EC50-Werte bespielhaft für drei untersuchte Verbindungen dargestellt.
Die untersuchten Verbindungen stimulieren die Proliferation von mit mpl-Rezepror transfektierten BaF3 Zellen in einer Dosis abhängigen Weise. Die Proliferation von parenteralen Zell-Linien wird nicht stimuliert. Auch in Abwesenheit von TPO stimulieren die Verbindungen die Proliferation der BaF3/mpl-Zellen in wochenlanger Kultur. Tabelle 3

For `O=S(=O)(O)c1cccc2c(O)c(N=Nc3ccc(C(F)(F)F)cc3O)ccc12` [Beispiel 20, 5-Hydroxy-6-(2-hydroxy-4-trifluormethyl-phenylazo)naphthalin-1-sulfonsäure], which EC50 is on record?
Its EC50 is 0.0728 µM.

For `O=[N+]([O-])c1ccc2c(N=Nc3ccc4ccccc4c3O)c(O)cc(S(=O)(=O)O)c2c1` [Beispiel 9], which EC50 is on record?
The EC50 was 1.37 µM.

How did the EC50 turn out when `O=[N+]([O-])c1ccc2c(N=Nc3c(O)ccc4ccccc34)c(O)cc(S(=O)(=O)O)c2c1` [Beispiel 12] was run?
The EC50 was 1.59 µM.

`Cc1ccc(O)c(N=Nc2c(O)cc(S(=O)(=O)O)c3ccccc23)c1` [Beispiel 13] was tested. Which EC50 did it give?
Its EC50 is 5.58 µM.

With `Cc1ccc(NC(=O)c2cc3ccccc3c(N=Nc3cc(S(=O)(=O)O)ccc3O)c2O)c(C)c1` [Beispiel 15] as the compound, how does the EC50 read?
The EC50 was 4.48 µM.
